Experimental data reported in patent US9340590B2 (priority 2011, dated 2016).
Read-outs that look alike come from different tables or passages of the source. Positions of bridges follow the written chain, without caps; N, C: chain ends. Non-standard residues stand in square brackets, D forms with d. Residues, ends and D or L forms follow the SMILES beside them. 1Nal = N[C@@H](Cc1cccc2ccccc12)C(=O)O

Tests used:
Assay in all cases: cell-based
hNav1.5 = hNav1.5 (Homo sapiens, UniProt Q14524); details: IonWorks Quattro, read-out: IWQ Use Nav1.5
Sequence of hNav1.5 (Q14524 whole entry, looked up): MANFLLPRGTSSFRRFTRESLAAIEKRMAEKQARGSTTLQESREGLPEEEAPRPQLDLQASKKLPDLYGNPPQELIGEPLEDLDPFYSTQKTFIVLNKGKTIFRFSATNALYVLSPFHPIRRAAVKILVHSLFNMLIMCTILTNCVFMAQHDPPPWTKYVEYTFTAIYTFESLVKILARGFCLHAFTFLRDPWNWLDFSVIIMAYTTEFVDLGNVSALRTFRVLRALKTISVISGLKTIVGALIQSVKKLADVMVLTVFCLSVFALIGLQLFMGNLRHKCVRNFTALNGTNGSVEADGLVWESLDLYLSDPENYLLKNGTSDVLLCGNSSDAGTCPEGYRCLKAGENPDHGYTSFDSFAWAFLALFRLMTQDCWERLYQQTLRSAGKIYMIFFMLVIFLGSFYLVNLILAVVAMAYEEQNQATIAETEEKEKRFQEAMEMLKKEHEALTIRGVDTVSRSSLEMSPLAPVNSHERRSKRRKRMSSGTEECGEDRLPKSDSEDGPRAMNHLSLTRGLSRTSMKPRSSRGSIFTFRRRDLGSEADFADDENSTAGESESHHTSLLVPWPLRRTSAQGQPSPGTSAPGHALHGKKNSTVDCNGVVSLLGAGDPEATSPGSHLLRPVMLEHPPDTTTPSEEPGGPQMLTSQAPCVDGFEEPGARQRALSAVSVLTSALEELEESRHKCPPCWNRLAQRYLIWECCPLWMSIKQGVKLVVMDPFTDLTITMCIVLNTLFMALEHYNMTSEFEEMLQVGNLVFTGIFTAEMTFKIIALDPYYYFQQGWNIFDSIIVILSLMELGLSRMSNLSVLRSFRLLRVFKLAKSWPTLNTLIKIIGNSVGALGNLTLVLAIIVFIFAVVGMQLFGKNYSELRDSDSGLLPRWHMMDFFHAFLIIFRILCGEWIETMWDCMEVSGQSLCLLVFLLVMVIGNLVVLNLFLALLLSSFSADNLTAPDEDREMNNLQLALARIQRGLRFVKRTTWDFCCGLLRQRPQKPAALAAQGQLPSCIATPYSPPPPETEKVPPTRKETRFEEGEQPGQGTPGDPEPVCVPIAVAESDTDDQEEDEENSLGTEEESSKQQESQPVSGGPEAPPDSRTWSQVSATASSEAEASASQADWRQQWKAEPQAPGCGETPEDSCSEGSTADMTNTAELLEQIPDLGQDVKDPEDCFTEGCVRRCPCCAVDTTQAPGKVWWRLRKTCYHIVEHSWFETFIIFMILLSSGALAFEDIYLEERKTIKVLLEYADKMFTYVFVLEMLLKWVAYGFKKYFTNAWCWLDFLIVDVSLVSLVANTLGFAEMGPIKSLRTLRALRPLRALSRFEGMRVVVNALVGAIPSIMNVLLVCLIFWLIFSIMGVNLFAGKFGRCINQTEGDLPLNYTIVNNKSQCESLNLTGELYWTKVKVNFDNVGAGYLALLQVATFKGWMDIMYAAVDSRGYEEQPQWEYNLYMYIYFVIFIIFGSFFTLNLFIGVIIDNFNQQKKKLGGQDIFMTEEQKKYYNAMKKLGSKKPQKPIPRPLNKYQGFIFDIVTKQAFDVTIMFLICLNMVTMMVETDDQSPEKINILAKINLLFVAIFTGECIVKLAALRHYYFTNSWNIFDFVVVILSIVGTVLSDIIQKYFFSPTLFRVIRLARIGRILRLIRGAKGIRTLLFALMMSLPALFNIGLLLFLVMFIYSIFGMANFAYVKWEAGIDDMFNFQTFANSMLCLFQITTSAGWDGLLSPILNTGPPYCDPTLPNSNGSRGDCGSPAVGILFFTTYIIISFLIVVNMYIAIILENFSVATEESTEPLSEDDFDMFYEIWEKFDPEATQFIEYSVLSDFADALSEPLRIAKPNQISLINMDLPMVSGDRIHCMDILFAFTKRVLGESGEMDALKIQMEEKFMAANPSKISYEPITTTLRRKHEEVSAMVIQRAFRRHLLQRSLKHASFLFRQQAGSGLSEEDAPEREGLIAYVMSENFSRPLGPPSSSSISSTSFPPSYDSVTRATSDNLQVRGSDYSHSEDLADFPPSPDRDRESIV

hNav1.3 = hNav1.3 (Homo sapiens, UniProt Q9NY46); details: IonWorks Quattro, read-out: IWQ Use Nav1.3
Sequence of hNav1.3 (Q9NY46 whole entry, looked up): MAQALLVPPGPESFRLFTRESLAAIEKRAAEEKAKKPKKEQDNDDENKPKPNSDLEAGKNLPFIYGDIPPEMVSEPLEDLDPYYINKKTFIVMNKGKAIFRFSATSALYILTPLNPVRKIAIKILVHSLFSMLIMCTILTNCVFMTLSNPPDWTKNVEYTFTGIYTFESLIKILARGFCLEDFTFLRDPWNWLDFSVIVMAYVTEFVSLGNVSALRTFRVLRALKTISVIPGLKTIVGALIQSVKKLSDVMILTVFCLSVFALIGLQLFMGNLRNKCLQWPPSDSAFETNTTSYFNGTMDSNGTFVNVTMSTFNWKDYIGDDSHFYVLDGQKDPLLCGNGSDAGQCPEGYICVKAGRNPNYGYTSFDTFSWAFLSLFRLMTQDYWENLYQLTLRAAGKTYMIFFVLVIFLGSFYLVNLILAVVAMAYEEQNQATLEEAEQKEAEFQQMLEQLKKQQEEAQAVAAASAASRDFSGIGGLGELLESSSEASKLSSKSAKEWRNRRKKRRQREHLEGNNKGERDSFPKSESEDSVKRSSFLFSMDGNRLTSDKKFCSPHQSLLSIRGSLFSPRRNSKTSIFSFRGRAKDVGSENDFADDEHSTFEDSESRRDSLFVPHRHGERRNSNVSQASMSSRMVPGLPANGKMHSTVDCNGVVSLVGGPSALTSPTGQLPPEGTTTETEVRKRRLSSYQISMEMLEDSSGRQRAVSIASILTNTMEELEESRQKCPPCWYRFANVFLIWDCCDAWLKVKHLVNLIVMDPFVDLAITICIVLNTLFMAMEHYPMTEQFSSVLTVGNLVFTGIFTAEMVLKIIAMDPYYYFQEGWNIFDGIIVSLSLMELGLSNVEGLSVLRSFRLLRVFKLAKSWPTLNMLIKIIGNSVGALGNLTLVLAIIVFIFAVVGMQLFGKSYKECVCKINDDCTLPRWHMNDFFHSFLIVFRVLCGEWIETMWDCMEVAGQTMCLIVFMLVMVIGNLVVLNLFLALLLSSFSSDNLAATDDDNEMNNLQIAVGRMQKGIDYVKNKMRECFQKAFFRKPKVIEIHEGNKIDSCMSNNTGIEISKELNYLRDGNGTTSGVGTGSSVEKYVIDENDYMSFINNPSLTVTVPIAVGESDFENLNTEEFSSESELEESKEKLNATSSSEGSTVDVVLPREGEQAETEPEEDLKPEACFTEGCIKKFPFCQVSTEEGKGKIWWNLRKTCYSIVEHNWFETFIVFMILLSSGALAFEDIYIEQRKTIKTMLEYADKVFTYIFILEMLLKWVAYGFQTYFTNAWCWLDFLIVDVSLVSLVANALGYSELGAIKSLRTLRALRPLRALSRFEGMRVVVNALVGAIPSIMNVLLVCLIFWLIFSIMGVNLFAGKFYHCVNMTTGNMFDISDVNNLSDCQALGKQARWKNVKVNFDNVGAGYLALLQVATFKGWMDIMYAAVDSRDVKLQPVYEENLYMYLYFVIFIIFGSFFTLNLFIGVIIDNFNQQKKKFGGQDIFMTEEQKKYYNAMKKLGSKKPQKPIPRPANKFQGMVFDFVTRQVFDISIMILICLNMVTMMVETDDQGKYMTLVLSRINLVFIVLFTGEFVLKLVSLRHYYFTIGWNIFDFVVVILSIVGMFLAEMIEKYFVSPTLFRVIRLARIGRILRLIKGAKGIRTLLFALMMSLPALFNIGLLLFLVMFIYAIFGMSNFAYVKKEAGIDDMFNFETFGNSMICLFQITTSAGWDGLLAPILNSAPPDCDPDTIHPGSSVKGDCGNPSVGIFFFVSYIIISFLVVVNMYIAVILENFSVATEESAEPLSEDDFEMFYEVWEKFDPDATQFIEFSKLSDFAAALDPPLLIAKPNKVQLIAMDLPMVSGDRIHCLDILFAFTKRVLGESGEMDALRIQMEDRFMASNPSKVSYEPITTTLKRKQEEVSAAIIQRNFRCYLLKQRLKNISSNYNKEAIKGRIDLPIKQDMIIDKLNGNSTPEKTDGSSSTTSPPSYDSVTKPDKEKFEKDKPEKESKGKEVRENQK

hNav1.7 = hNav1.7 (Homo sapiens, UniProt Q15858); type: cell-based
[1] = Table 23, IonWorks Quattro, use, […], read-out: IWQ Use Nav1.7

CC[C@H](C)[C@@H]1NC(=O)[C@@H]2CSSC[C@@H]3NC(=O)[C@H](C(C)C)NC(=O)[C@H](CC(C)C)NC(=O)[C@H](CC(N)=O)NC(=O)[C@@H]4CCCN4C(=O)[C@H](CCCNC(=N)N)NC(=O)[C@H](CSSC[C@H](NC(=O)[C@@H](N)CC(=O)O)C(=O)N[C@@H](CC(C)C)C(=O)NCC(=O)N[C@@H](Cc4ccccc4)C(=O)N[C@@H](CCSC)C(=O)N[C@@H](CCCNC(=N)N)C(=O)N[C@@H](CCCCN)C(=O)N2)NC(=O)[C@H](CSSC[C@@H](C(=O)N[C@@H](CCCCN)C(=O)N[C@@H](CCCCN)C(=O)N[C@H](C(=O)N[C@@H](Cc2cccc4ccccc24)C(=O)N[C@@H](Cc2c[nH]c4ccccc24)C(N)=O)C(C)C)NC(=O)[C@H](Cc2c[nH]c4ccccc24)NC(=O)[C@H](CCCCN)NC(=O)[C@H](Cc2c[nH]cn2)NC(=O)[C@H]([C@@H](C)O)NC(=O)[C@H](CCCNC(=N)N)NC(=O)[C@H](CO)NC3=O)NC(=O)[C@H](CCCCN)NC(=O)[C@H](CC(=O)O)NC(=O)[C@H](CC(N)=O)NC(=O)[C@H](CC(=O)O)NC(=O)[C@@H]2CCCN2C1=O [compound 99] (H-DCLGFMRKCIPDNDKCCRPNLVCSRTHKWCKKV[1Nal]W-NH2; disulfide 2-17, 9-23, 16-30)
IC50 (hNav1.5; use-dependent block, hNav1.5): 9140 nM
IC50 (hNav1.3; use-dependent block, hNav1.3): 160 nM
IC50 (hNav1.7; IonWorks Quattro, use-dependent block, hNav1.7, read-out: IWQ Use Nav1.7): 110 nM

CC[C@H](C)[C@@H]1NC(=O)[C@@H]2CSSC[C@@H]3NC(=O)[C@H](C(C)C)NC(=O)[C@H](CC(C)C)NC(=O)[C@H](CC(N)=O)NC(=O)[C@@H]4CCCN4C(=O)[C@H](CCCNC(=N)N)NC(=O)[C@H](CSSC[C@H](NC(=O)[C@@H](N)CC(=O)O)C(=O)N[C@@H](CC(C)C)C(=O)NCC(=O)N[C@@H](Cc4ccccc4)C(=O)N[C@@H](CCSC)C(=O)N[C@@H](CCCNC(=N)N)C(=O)N[C@@H](CCCCN)C(=O)N2)NC(=O)[C@H](CSSC[C@@H](C(=O)N[C@@H](CCCCN)C(=O)N[C@@H](Cc2ccc(O)cc2)C(=O)N[C@H](C(=O)N[C@@H](C)C(N)=O)C(C)C)NC(=O)[C@H](Cc2c[nH]c4ccccc24)NC(=O)[C@H](CCCCN)NC(=O)[C@H](Cc2cnc[nH]2)NC(=O)[C@H]([C@@H](C)O)NC(=O)[C@H](CCCNC(=N)N)NC(=O)[C@H](CO)NC3=O)NC(=O)[C@H](CCCCN)NC(=O)[C@H](CC(=O)O)NC(=O)[C@H](CC(N)=O)NC(=O)[C@H](CC(=O)O)NC(=O)[C@@H]2CCCN2C1=O [compound 101] (H-DCLGFMRKCIPDNDKCCRPNLVCSRTHKWCKYVA-NH2; disulfide 2-17, 9-23, 16-30)
IC50 (hNav1.5; use-dependent, […]): 9330 nM
IC50 (hNav1.3; use-dependent, […]): 4760 nM
IC50 (hNav1.7): 7190 nM

CC[C@H](C)[C@@H]1NC(=O)[C@@H]2CSSC[C@@H]3NC(=O)[C@H](C(C)C)NC(=O)[C@H](CC(C)C)NC(=O)[C@H](CC(N)=O)NC(=O)[C@@H]4CCCN4C(=O)[C@H](CCCNC(=N)N)NC(=O)[C@H](CSSC[C@H](NC(=O)[C@@H](N)CC(=O)O)C(=O)N[C@@H](CC(C)C)C(=O)NCC(=O)N[C@@H](Cc4ccccc4)C(=O)N[C@@H](CCSC)C(=O)N[C@@H](CCCNC(=N)N)C(=O)N[C@@H](CCCCN)C(=O)N2)NC(=O)[C@H](CSSC[C@@H](C(=O)N[C@@H](CCCCN)C(=O)N[C@@H](Cc2ccc(O)cc2)C(=O)N[C@H](C(=O)N[C@@H](Cc2ccccc2)C(N)=O)C(C)C)NC(=O)[C@H](Cc2c[nH]c4ccccc24)NC(=O)[C@H](CCCCN)NC(=O)[C@H](Cc2cnc[nH]2)NC(=O)[C@H]([C@@H](C)O)NC(=O)[C@H](CCCNC(=N)N)NC(=O)[C@H](CO)NC3=O)NC(=O)[C@H](CCCCN)NC(=O)[C@H](CC(=O)O)NC(=O)[C@H](CCCNC(=N)N)NC(=O)[C@H](CC(=O)O)NC(=O)[C@@H]2CCCN2C1=O [compound 103] (H-DCLGFMRKCIPDRDKCCRPNLVCSRTHKWCKYVF-NH2; disulfide 2-17, 9-23, 16-30)
IC50 (hNav1.5; Use): 16000 nM
IC50 (hNav1.3; Use): 220 nM
IC50 (hNav1.7; IonWorks Quattro, Use, read-out: IWQ Use Nav1.7): 160 nM

CC[C@H](C)[C@@H]1NC(=O)[C@@H]2CSSC[C@@H]3NC(=O)[C@H](C(C)C)NC(=O)[C@H](CC(C)C)NC(=O)[C@H](CC(N)=O)NC(=O)[C@@H]4CCCN4C(=O)[C@H](CCCNC(=N)N)NC(=O)[C@H](CSSC[C@H](NC(=O)[C@@H](N)CC(=O)O)C(=O)N[C@@H](CC(C)C)C(=O)NCC(=O)N[C@@H](Cc4ccccc4)C(=O)N[C@@H](CCSC)C(=O)N[C@@H](CCCNC(=N)N)C(=O)N[C@@H](CCCCN)C(=O)N2)NC(=O)[C@H](CSSC[C@@H](C(=O)N[C@@H](CCCCN)C(=O)N[C@@H](Cc2ccc(O)cc2)C(=O)N[C@H](C(=O)N[C@@H](Cc2ccccc2)C(N)=O)C(C)C)NC(=O)[C@H](CCCNC(=N)N)NC(=O)[C@H](CCCCN)NC(=O)[C@H](Cc2cnc[nH]2)NC(=O)[C@H]([C@@H](C)O)NC(=O)[C@H](CCCNC(=N)N)NC(=O)[C@H](CO)NC3=O)NC(=O)[C@H](CCCCN)NC(=O)[C@H](CC(=O)O)NC(=O)[C@H](CC(N)=O)NC(=O)[C@H](CC(=O)O)NC(=O)[C@@H]2CCCN2C1=O [compound 104] (H-DCLGFMRKCIPDNDKCCRPNLVCSRTHKRCKYVF-NH2; disulfide 2-17, 9-23, 16-30)
IC50 (hNav1.5; Table 24, use, […]): 18800 nM
IC50 (hNav1.3; Table 24, use, […]): 11400 nM
IC50 (hNav1.7; Table 24, IonWorks Quattro, use, […], read-out: IWQ Use Nav1.7): 9730 nM

CC[C@H](C)[C@@H]1NC(=O)[C@@H]2CSSC[C@@H]3NC(=O)[C@H](C(C)C)NC(=O)[C@H](CC(C)C)NC(=O)[C@H](CC(N)=O)NC(=O)[C@@H]4CCCN4C(=O)[C@H](CCCNC(=N)N)NC(=O)[C@H](CSSC[C@H](NC(=O)[C@@H](N)CC(=O)O)C(=O)N[C@@H](CC(C)C)C(=O)NCC(=O)N[C@@H](Cc4ccccc4)C(=O)N[C@@H](CCSC)C(=O)N[C@@H](CCCNC(=N)N)C(=O)N[C@@H](CCCCN)C(=O)N2)NC(=O)[C@H](CSSC[C@@H](C(=O)N[C@@H](CCCCN)C(=O)N[C@@H](Cc2ccc(O)cc2)C(=O)N[C@H](C(=O)N[C@@H](Cc2ccccc2)C(N)=O)C(C)C)NC(=O)[C@H](Cc2c[nH]c4ccccc24)NC(=O)[C@H](CCCCN)NC(=O)[C@H](Cc2ccccc2)NC(=O)[C@H]([C@@H](C)O)NC(=O)[C@H](CCCNC(=N)N)NC(=O)[C@H](CO)NC3=O)NC(=O)[C@H](CCCCN)NC(=O)[C@H](CC(=O)O)NC(=O)[C@H](CC(N)=O)NC(=O)[C@H](CC(=O)O)NC(=O)[C@@H]2CCCN2C1=O [compound 109] (H-DCLGFMRKCIPDNDKCCRPNLVCSRTFKWCKYVF-NH2; disulfide 2-17, 9-23, 16-30)
IC50 (hNav1.5; Table 23, use, […]): 2060 nM
IC50 (hNav1.3; Table 23, use, […]): 530 nM
IC50 (hNav1.7; [1]): 220 nM

CC[C@H](C)[C@@H]1NC(=O)[C@@H]2CSSC[C@@H]3NC(=O)[C@H](C(C)C)NC(=O)[C@H](CC(C)C)NC(=O)[C@H](CC(N)=O)NC(=O)[C@@H]4CCCN4C(=O)[C@H](CCCNC(=N)N)NC(=O)[C@H](CSSC[C@H](NC(=O)[C@@H](N)CC(=O)O)C(=O)N[C@@H](CC(C)C)C(=O)NCC(=O)N[C@@H](Cc4ccccc4)C(=O)N[C@@H](CCSC)C(=O)N[C@@H](CCCNC(=N)N)C(=O)N[C@@H](CCCCN)C(=O)N2)NC(=O)[C@H](CSSC[C@@H](C(=O)N[C@@H](CCCCN)C(=O)N[C@@H](Cc2ccc(O)cc2)C(=O)N[C@H](C(=O)N[C@@H](Cc2ccccc2)C(N)=O)C(C)C)NC(=O)[C@H](Cc2c[nH]c4ccccc24)NC(=O)[C@H](CCCCN)NC(=O)[C@H](Cc2ccc(O)cc2)NC(=O)[C@H]([C@@H](C)O)NC(=O)[C@H](CCCNC(=N)N)NC(=O)[C@H](CO)NC3=O)NC(=O)[C@H](CCCCN)NC(=O)[C@H](CC(=O)O)NC(=O)[C@H](CC(N)=O)NC(=O)[C@H](CC(=O)O)NC(=O)[C@@H]2CCCN2C1=O [compound 110] (H-DCLGFMRKCIPDNDKCCRPNLVCSRTYKWCKYVF-NH2; disulfide 2-17, 9-23, 16-30)
IC50 (hNav1.5; Table 23, use, […]): 6390 nM
IC50 (hNav1.3; Table 23, use, […]): 310 nM
IC50 (hNav1.7; [1]): 190 nM

CC[C@H](C)[C@@H]1NC(=O)[C@@H]2CSSC[C@@H]3NC(=O)[C@H](C(C)C)NC(=O)[C@H](CC(C)C)NC(=O)[C@H](CC(N)=O)NC(=O)[C@@H]4CCCN4C(=O)[C@H](CCCNC(=N)N)NC(=O)[C@H](CSSC[C@H](NC(=O)[C@@H](N)CC(=O)O)C(=O)N[C@@H](CC(C)C)C(=O)NCC(=O)N[C@@H](Cc4ccccc4)C(=O)N[C@@H](CCSC)C(=O)N[C@@H](CCCNC(=N)N)C(=O)N[C@@H](CCCCN)C(=O)N2)NC(=O)[C@H](CSSC[C@@H](C(=O)N[C@@H](CCCCN)C(=O)N[C@@H](Cc2ccc(O)cc2)C(=O)N[C@H](C(=O)N[C@@H](Cc2ccccc2)C(N)=O)C(C)C)NC(=O)[C@H](Cc2c[nH]c4ccccc24)NC(=O)[C@H](CCCCN)NC(=O)[C@H](CC(C)C)NC(=O)[C@H]([C@@H](C)O)NC(=O)[C@H](CCCNC(=N)N)NC(=O)[C@H](CO)NC3=O)NC(=O)[C@H](CCCCN)NC(=O)[C@H](CC(=O)O)NC(=O)[C@H](CC(N)=O)NC(=O)[C@H](CC(=O)O)NC(=O)[C@@H]2CCCN2C1=O [compound 111] (H-DCLGFMRKCIPDNDKCCRPNLVCSRTLKWCKYVF-NH2; disulfide 2-17, 9-23, 16-30)
IC50 (hNav1.5; Table 23, use, […]): 6190 nM
IC50 (hNav1.3; Table 23, use, […]): 1010 nM
IC50 (hNav1.7; [1]): 1150 nM
